In patent US4278671A, “7-[2-(2-Aminothiazol-4-yl)-2-(syn)-methoxyiminoacetamido] cephalosporins” (Takeda Chemical Industries, Ltd., priority 1976, dated 1981):
≈ marks a conversion by molar mass, not a printed value. Like-named read-outs stand apart in the source and are kept apart here.

Columns and labels:
[1] = system: Proteus vulgaris IFO 3988; assay: minimal inhibitory concentration against P. vulgaris IFO 3988; format: cell-based; conditions: IFO3988
[2] = system: Klebsiella pneumoniae GN 3835; assay: minimal inhibitory concentration against K. pneumoniae GN 3835; format: cell-based; conditions: GN3835
E. coli 0-111 = assay: minimal inhibitory concentration against E. coli 0-111; format: cell-based, Escherichia coli; conditions: 0111
[3] = system: Citrobacter freundii GN 99; assay: minimal inhibitory concentration against Cit. freundii GN 99; format: cell-based; conditions: GN99
[4] = system: Proteus morganii IFO 3168; assay: minimal inhibitory concentration against P. morganii IFO 3168; format: cell-based; conditions: Morganella morganii, IFO3168
Serratia TN 0024 = assay: minimal inhibitory concentration against Serratia TN 0024; format: cell-based
[5] = system: Enterobacter cloacae IFO 12937; assay: minimal inhibitory concentration against Ent. cloacae IFO 12937; format: cell-based; conditions: IFO12937; Enterobacter cloacae IFO 12937; read-out: MIC
P. rettgeri 8(TN0336) = assay: minimal inhibitory concentration against P. rettgeri 8 (TN0336); format: cell-based, Proteus rettgeri; conditions: Providencia rettgeri
[6] = system: Serratia marcescens IFO 12648; assay: minimal inhibitory concentration against Serr. marcescens IFO 12648; format: cell-based; conditions: IFO12648
Klebsiella pneumoniae DT = assay: minimal inhibitory concentration against K. pneumoniae DT; format: cell-based
[7] = system: Proteus mirabilis GN 4359; assay: minimal inhibitory concentration against P. mirabilis GN 4359; format: cell-based; conditions: GN4359
Proteus rettgeri GN 4733 = assay: minimal inhibitory concentration against P. rettgeri GN 4733; format: cell-based; conditions: Providencia rettgeri, GN4733
[8] = system: Citrobacter freundii GN 1706; assay: minimal inhibitory concentration against Cit. freundii GN 1706; format: cell-based; conditions: GN1706
E. coli = assay: protective effect on infected mice (intraperitoneal infection with E. coli); format: in vivo; conditions: Escherichia coli, 168 h, male mice ICR/SLC, 7 days observation
From the text: *Test animals: male mice (ICR/SLC) 5 mice per group per single
Infection: intraperitoneally with E. coli
Observation period: 7 days

[9] = system: Acinetobacter anitratus TN-1140; assay: minimal inhibitory concentration against Acinetobacter anitratus TN-1140; format: cell-based; conditions: Acinetobacter calcoaceticus, TN1140
P. vulgaris GN 4413 = assay: minimal inhibitory concentration against P. vulgaris GN 4413; format: cell-based; conditions: Proteus vulgaris, GN4413
Ps. aeruginosa GN3407 = assay: minimal inhibitory concentration against Ps. aeruginosa GN3407; format: cell-based; conditions: Pseudomonas aeruginosa
Ps. aeruginosa P2 = assay: minimal inhibitory concentration against Ps. aeruginosa P2; format: cell-based; conditions: Pseudomonas aeruginosa
Ps. aeruginosa Pd 1 = assay: minimal inhibitory concentration against Ps. aeruginosa Pd 1; format: cell-based; conditions: Pseudomonas aeruginosa, PD1
E. coli T-7 = assay: minimal inhibitory concentration against E. coli T-7; format: cell-based; conditions: Escherichia coli, T7
Ent. cloacae TN1282 = assay: minimal inhibitory concentration against Ent. cloacae TN1282; format: cell-based; conditions: Enterobacter cloacae
E. coli NIHJ = assay: minimal inhibitory concentration against E. coli NIHJ; format: cell-based; conditions: Escherichia coli
Ps. aeruginosa PM 3 = assay: minimal inhibitory concentration against Ps. aeruginosa PM 3; format: cell-based; conditions: Pseudomonas aeruginosa, PM3
[10] = Proteus vulgaris, P. vulgaris IFO 3988, read-out: minimal inhibitory concentration
[11] = Klebsiella pneumoniae, K. pneumoniae GN 3835, read-out: minimal inhibitory concentration
[12] = Escherichia coli, E. coli 0-111, read-out: minimal inhibitory concentration
[13] = Citrobacter freundii, Cit. freundii GN 99, read-out: minimal inhibitory concentration
[14] = P. morganii IFO 3168, read-out: minimal inhibitory concentration
[15] = TN0024, Serratia TN 0024, read-out: minimal inhibitory concentration
[16] = P. rettgeri 8(TN0336), read-out: minimal inhibitory concentration
[17] = Serratia marcescens, Serr. marcescens IFO 12648, read-out: minimal inhibitory concentration
[18] = Klebsiella pneumoniae, K. pneumoniae DT, read-out: minimal inhibitory concentration
[19] = Proteus mirabilis, P. mirabilis GN 4359, read-out: minimal inhibitory concentration
[20] = P. rettgeri GN 4733, read-out: minimal inhibitory concentration
[21] = Citrobacter freundii, Cit. freundii GN 1706, read-out: minimal inhibitory concentration

Q: What does the source list for `CO/N=C(/C(=O)NC1C(=O)N2C(C(=O)O)=C(COC(N)=O)CSC12)c1csc(N)n1` (stereo not drawn) [compound 27, sodium 7-[(2-aminothiazol-4-yl)-α-(anti)-methoxyimino]acetamido-3-carbamoyloxymethyl-3-cephem-4-carboxylate, reference compound]?
A: MIC ([1]; Proteus vulgaris IFO 3988, read-out: MIC): 0.39 µg/mL; MIC ([2]; Klebsiella pneumoniae GN 3835, read-out: MIC): 6.25 µg/mL; MIC (E. coli 0-111; Escherichia coli 0-111, read-out: MIC): 0.78 µg/mL; MIC ([3]; Citrobacter freundii GN 99, read-out: MIC): 1.56 µg/mL; MIC ([4]; Proteus morganii IFO 3168, read-out: MIC): 0.78 µg/mL; MIC (Serratia TN 0024; Serratia TN0024, read-out: MIC): 6.25 µg/mL; MIC [5]: 25 µg/mL; MIC (P. rettgeri 8(TN0336); Proteus rettgeri 8 TNO 336, read-out: MIC): < 0.2 µg/mL; MIC ([6]; Serratia marcescens IFO 12648, read-out: MIC): 12.5 µg/mL; MIC (Klebsiella pneumoniae DT; Klebsiella pneumoniae DT, read-out: MIC): 1.56 µg/mL; MIC ([7]; Proteus mirabilis GN 4359, read-out: MIC): 0.78 µg/mL; MIC (Proteus rettgeri GN 4733; Proteus rettgeri GN 4733, read-out: MIC): 0.78 µg/mL; MIC ([8]; Citrobacter freundii GN 1706, read-out: MIC): 3.13 µg/mL

Q: For `O=C(Cc1cccs1)N[C@@H]1C(=O)N2C(C(=O)[O-])=C(C[n+]3ccccc3)CS[C@H]12` [CER, cephaloridine, reference compound], which ED50 (E. coli; subcutaneous (SC)) is on record?
A: 1.25 mg/kg

Q: For `CC1=C(C(=O)O)N2C(=O)[C@@H](NC(=O)[C@H](N)c3ccccc3)[C@H]2SC1` [CEX, cephalexin, reference compound], which ED50 (E. coli; oral) is on record?
A: 2.51 mg/kg

Q: For `CO/N=C(\C(=O)NC1C(=O)N2C(C(=O)O)=C(COC(N)=O)CSC12)c1csc(N)n1` (stereo not drawn) [Example 1, sodium 7-[2-(2-aminothiazol-4-yl)-2-(syn)-methoxyiminoacetamido]-3-carbamoyloxymethyl-3-cephem-4-carboxylate], which MIC [1, 10] is on record?
A: ≤ 0.02 µg/mL

Q: And the MIC [2, 11]?
A: 0.05 µg/mL

Q: And the MIC [9]?
A: 6.25 µg/mL

Q: And the MIC (P. vulgaris GN 4413)?
A: 1.56 µg/mL

Q: What about the MIC (E. coli 0-111; [12]) of the same compound?
A: 0.024 µg/mL

Q: And the MIC [3, 13]?
A: 0.2 µg/mL

Q: What about the MIC [4, 14] of the same compound?
A: 0.39 µg/mL

Q: What about the MIC (Serratia TN 0024; [15]) of the same compound?
A: 0.2 µg/mL

Q: What about the MIC (Ps. aeruginosa GN3407) of the same compound?
A: > 100 µg/mL

Q: What about the ED50 (E. coli; subcutaneous (SC)) of the same compound?
A: 0.015 mg/kg

Q: And the MIC (Ps. aeruginosa P2)?
A: 25 µg/mL

Q: And the MIC (Ps. aeruginosa Pd 1)?
A: 50 µg/mL

Q: And the MIC (P. rettgeri 8(TN0336); [16])?
A: ≤ 0.012 µg/mL

Q: What about the MIC (E. coli T-7) of the same compound?
A: 0.39 µg/mL

Q: And the MIC [6, 17]?
A: 1.56 µg/mL

Q: And the MIC (Ent. cloacae TN1282)?
A: 6.25 µg/mL

Q: And the MIC (Klebsiella pneumoniae DT; [18])?
A: < 0.012 µg/mL

Q: What about the MIC (E. coli NIHJ) of the same compound?
A: 0.1 µg/mL

Q: And the MIC [7, 19]?
A: ≤ 0.02 µg/mL

Q: And the MIC (Proteus rettgeri GN 4733; [20])?
A: 0.05 µg/mL

Q: What about the MIC (Ps. aeruginosa PM 3) of the same compound?
A: 3.13 µg/mL

Q: What about the MIC [8, 21] of the same compound?
A: 0.39 µg/mL

Q: `CO/N=C(\C(=O)NC1C(=O)N2C(C(=O)O)=C(CSc3nnnn3C)CSC12)c1csc(N)n1` (centres unmarked) [Example 2] was tested. Which MIC [1, 10] did it give?
A: 0.024 µg/mL (≈ 0.0469 µM)

Q: And the MIC [2, 11]?
A: 0.2 µg/mL (≈ 0.391 µM)

Q: And the MIC [9]?
A: 25 µg/mL (≈ 48.9 µM)

Q: And the MIC (P. vulgaris GN 4413)?
A: 0.39 µg/mL (≈ 0.762 µM)

Q: And the MIC (E. coli 0-111; [12])?
A: 0.024 µg/mL (≈ 0.0469 µM)

Q: And the MIC [3, 13]?
A: 0.1 µg/mL (≈ 0.195 µM)

Q: What about the MIC [4, 14] of the same compound?
A: 0.05 µg/mL (≈ 0.0977 µM)

Q: What about the MIC (Serratia TN 0024; [15]) of the same compound?
A: 0.2 µg/mL (≈ 0.391 µM)

Q: What about the MIC (Ps. aeruginosa GN3407) of the same compound?
A: 50 µg/mL (≈ 97.7 µM)

Q: What about the ED50 (E. coli; subcutaneous (SC)) of the same compound?
A: 0.022 mg/kg

Q: What about the MIC (Ps. aeruginosa P2) of the same compound?
A: 50 µg/mL (≈ 97.7 µM)

Q: And the MIC (Ps. aeruginosa Pd 1)?
A: 12.5 µg/mL (≈ 24.4 µM)

Q: What about the MIC (P. rettgeri 8(TN0336); [16]) of the same compound?
A: ≤ 0.012 µg/mL

Q: What about the MIC (E. coli T-7) of the same compound?
A: 0.78 µg/mL (≈ 1.52 µM)

Q: What about the MIC [6, 17] of the same compound?
A: 0.78 µg/mL (≈ 1.52 µM)

Q: What about the MIC (Ent. cloacae TN1282) of the same compound?
A: 1.56 µg/mL (≈ 3.05 µM)

Q: And the MIC (Klebsiella pneumoniae DT; [18])?
A: 0.024 µg/mL (≈ 0.0469 µM)

Q: What about the MIC (E. coli NIHJ) of the same compound?
A: 0.1 µg/mL (≈ 0.195 µM)

Q: What about the MIC [7, 19] of the same compound?
A: 0.1 µg/mL (≈ 0.195 µM)

Q: What about the MIC (Proteus rettgeri GN 4733; [20]) of the same compound?
A: 0.2 µg/mL (≈ 0.391 µM)

Q: And the MIC (Ps. aeruginosa PM 3)?
A: 0.78 µg/mL (≈ 1.52 µM)

Q: And the MIC [8, 21]?
A: 0.2 µg/mL (≈ 0.391 µM)
